Assay results taken from US9475815B2, “Substituted benzothienyl-pyrrolotriazines and uses thereof” (Bayer Intellectual Property GmbH, priority 2012, dated 2016).
Where a name gives a salt, the structure may show the parent alone.

Key:
[1] = test system: Human umbilical vein endothelial cells (HUVEC); assay: Inhibition of growth factor-mediated cell proliferation (hFGF-2); assay type: cell-based; settings: Homo sapiens, HUVEC, 72 h, 72 h exposure, hFGF-2 stimulated; from averaged pIC50 values
Method: Human umbilical vein endothelial cells (HUVEC) were obtained from Cellsystems (FC-0003) and grown in Vasculife VEGF complete medium (Cellsystems, LL-1020) containing 2% fetal bovine serum (FBS) at 37° C. and 5% CO2. The cells were used for proliferation assays up to passage 7.
The HUVEC cells were harvested using accutase (PAA, L11-007) and seeded in columns 2 to 12 of 96-well plates (Falcon MICROTEST tissue culture plate 96-well flat bottom, BD 353075, or μCLEAR-PLATE, black, 96-well, Greiner Bio-One, No. 655090) at a cell density of 2500 cells/well in 100 μl Vasculife VEGF complete medium with column 1 remaining empty as blank. Cells were allowed to incubate at 37° C. and 5% CO2 for at least 6 h. Then, the cells were washed once with PBS and starved overnight in Vasculife basal medium (Cellsystems, LM-0002) containing heparin, ascorbate and L-glutamine (components of the Vasculife Life Factors Kit, Cellsystems, LL-1020) as well as 0.2% FBS.
After about 18 h, the starving medium was discarded, and the cells were exposed for 72 h to 9 consecutive log or half-log concentrations of test compound in the range of 10 pM to 30 μM and to 5, 10 or 20 ng/ml hFGF-2 (recombinant human FGF basic, R&D Systems, 233-FB) in 100 μl starving medium. 10 mM stock solutions of test compounds in DMSO were diluted to 200× final concentration in DMSO resulting in a final DMSO concentration of 0.5% in all wells. Controls consisted of cells grown in starving medium only and of cells grown in hFGF-2 containing starving medium with 0.5% DMSO. To determine cell proliferation, 5 μl Alamar Blue solution (Biosource, DAL1100) was added to each well (1:20 dilution), and the cells were allowed to incubate for further 4 h at 37° C. and 5% CO2 before measuring fluorescence (ex. 535 nm, em. 595 nm) with a Spectrafluor Plus Tecan plate reader (XFLUOR4 version 4.20). In some experiments, an ATP Determination Kit (BIAFFIN GmbH, LBR-T100) was used according to the manufacturer's instructions. In each experiment, samples were assayed in triplicate, and the standard deviations were determined GraphPad Prism 5 software was used to analyze the data and to obtain IC50 values. All test compounds were assayed 2 to 10 times in independent experiments and similar results were obtained.

human FGFR-1 = human FGFR-1 (Homo sapiens, UniProt P11362); assay: FGFR-1 high ATP kinase assay (TR-FRET)
Chain of human FGFR-1 (P11362 22-822 limits assumed): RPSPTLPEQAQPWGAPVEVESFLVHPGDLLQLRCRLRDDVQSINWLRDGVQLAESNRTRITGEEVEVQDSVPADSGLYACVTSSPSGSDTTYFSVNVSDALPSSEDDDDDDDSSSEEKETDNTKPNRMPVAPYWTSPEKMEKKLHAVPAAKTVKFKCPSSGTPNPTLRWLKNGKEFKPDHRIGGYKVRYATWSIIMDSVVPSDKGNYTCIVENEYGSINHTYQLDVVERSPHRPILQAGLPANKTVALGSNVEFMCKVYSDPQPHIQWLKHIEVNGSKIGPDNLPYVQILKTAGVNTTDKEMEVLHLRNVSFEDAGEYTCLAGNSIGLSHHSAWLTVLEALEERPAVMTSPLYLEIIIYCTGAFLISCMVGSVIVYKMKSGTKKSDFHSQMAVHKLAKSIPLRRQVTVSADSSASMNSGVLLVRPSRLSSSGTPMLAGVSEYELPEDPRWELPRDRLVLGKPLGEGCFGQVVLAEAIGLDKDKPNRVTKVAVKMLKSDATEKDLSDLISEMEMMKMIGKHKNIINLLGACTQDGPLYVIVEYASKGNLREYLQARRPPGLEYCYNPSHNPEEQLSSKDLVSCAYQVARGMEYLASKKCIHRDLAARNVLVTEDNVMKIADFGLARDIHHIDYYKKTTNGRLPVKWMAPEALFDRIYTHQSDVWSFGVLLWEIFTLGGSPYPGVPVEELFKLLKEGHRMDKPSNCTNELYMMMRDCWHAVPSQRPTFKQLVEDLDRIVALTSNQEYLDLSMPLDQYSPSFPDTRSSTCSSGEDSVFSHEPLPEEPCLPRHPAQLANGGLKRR

human mTOR = human mTOR (Homo sapiens (Human), UniProt P42345); assay: mTOR kinase assay (TR-FRET, for comparative purposes); assay type: biochemical; settings: read-out: mTOR % inhibition @ 1 μM, 1 μM test compound, 40 μM ATP, mean values
Chain of human mTOR (P42345 1360-2549): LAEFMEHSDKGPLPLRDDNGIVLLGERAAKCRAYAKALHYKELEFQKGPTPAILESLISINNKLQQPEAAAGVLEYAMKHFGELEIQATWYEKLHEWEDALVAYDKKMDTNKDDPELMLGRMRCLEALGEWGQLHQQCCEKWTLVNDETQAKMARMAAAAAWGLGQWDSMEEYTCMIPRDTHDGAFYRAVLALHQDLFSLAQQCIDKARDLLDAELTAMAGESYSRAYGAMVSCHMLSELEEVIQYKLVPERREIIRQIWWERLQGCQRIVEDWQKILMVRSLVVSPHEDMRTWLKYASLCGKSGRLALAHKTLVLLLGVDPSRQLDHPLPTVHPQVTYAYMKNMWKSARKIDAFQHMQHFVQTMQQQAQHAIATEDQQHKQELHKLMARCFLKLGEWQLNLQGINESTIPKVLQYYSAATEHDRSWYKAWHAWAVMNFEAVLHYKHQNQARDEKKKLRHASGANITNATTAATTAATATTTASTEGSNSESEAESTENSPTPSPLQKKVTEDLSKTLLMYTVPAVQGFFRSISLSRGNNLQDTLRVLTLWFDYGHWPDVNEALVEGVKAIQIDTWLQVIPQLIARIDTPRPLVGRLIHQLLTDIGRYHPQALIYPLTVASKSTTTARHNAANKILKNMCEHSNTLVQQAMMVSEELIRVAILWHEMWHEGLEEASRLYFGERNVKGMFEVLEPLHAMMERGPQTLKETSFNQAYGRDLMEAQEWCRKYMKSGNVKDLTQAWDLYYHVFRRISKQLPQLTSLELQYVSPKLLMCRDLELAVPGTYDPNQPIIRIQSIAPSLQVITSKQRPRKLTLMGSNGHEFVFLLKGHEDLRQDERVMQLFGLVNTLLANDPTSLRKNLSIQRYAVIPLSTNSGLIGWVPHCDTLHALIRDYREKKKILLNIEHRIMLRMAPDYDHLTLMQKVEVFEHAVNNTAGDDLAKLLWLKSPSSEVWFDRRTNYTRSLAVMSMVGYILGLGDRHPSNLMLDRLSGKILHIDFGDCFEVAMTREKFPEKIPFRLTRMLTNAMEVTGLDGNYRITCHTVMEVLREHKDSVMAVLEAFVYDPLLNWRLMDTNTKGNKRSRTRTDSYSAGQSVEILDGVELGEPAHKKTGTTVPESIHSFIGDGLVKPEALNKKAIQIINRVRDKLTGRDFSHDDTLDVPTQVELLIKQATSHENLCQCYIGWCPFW

human FGFR-3 = human FGFR-3 (Homo sapiens (Human), UniProt P22607); assay: FGFR-3 kinase assay (TR-FRET); assay type: biochemical; settings: 10 μM ATP, 15 min pre-incubation with enzyme
Chain of human FGFR-3 (P22607 397-806): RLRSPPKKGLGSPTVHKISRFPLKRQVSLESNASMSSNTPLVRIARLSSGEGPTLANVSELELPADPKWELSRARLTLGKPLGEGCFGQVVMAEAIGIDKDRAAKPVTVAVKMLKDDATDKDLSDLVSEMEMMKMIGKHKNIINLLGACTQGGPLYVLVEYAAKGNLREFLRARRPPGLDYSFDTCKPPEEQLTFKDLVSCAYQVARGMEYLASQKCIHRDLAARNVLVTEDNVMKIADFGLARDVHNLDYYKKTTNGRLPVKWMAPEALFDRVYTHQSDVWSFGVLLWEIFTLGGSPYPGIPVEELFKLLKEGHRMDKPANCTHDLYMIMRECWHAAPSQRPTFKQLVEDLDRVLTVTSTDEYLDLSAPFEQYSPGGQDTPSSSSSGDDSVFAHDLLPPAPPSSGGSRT

Row | SMILES | IC50 [1] [µM] | IC50 (human FGFR-1) [µM] | inhibition at 1 µM (human mTOR) [%] | IC50 (human FGFR-3) [µM]
1 | COc1cc(C)cc2cc(-c3cc(C(=O)N4CCC[C@](C)(N)C4)n4ncnc(N)c34)sc12 [Example 105] | 0.137 | 0.0204 | 17.1 | 0.0257
2 | COc1cc(C)cc2cc(-c3cc(CNCC(N)=O)n4ncnc(N)c34)sc12 [Example 18] | 0.155 | 0.0264 | 39.1 | 0.0078
3 | COc1cc(C)cc2cc(-c3cc(CN4CCCC(N(C)C)C4)n4ncnc(N)c34)sc12 (stereo not shown) [Example 86] | 0.037 | 0.0046 | 33 | 0.0096
4 | COc1cc(C)cc2cc(-c3cc(CN4CC[C@](C)(N)C4)n4ncnc(N)c34)sc12 [Example 5, 7-{[(3S)-3-Amino-3-methylpyrrolidin-1-yl]methyl}-5-(7-methoxy-5-methyl-1-benzothiophen-2-yl)pyrrolo[2,1-f][1,2,4]triazin-4-amine trihydrochloride] | 0.048 | 0.0011 | 18.8 | 0.0074
5 | COc1cc(C)cc2cc(-c3cc(CN4CCC(NCC(C)O)C4)n4ncnc(N)c34)sc12 (stereo not shown) [Example 22] | 0.105 | 0.0093 | 14 | 0.0418
6 | COc1cc(C)cc2cc(-c3cc(CN4CC[C@H](N(C)C)C4)n4ncnc(N)c34)sc12 [Example 15] | 0.18 | 0.0111 | 25.2 | 0.023
7 | COc1cc(C)cc2cc(-c3cc(C(=O)NC4CCNC4=O)n4ncnc(N)c34)sc12 (racemic) [Example 98, rac-4-Amino-5-(7-methoxy-5-methyl-1-benzothiophen-2-yl)-N-(2-oxopyrrolidin-3-yl)pyrrolo-[2,1-f][1,2,4]triazine-7-carboxamide hydrochloride] | 0.048 | 0.009 | 24.6 | 0.0131
8 | COc1cc(C)cc2cc(-c3cc(CN[C@H]4CCNC4=O)n4ncnc(N)c34)sc12 [Example 14] | 0.032 | 0.0436 | 30.6 | 0.0334
9 | COc1cc(C)cc2cc(-c3cc(C(=O)N4CCNCC4)n4ncnc(N)c34)sc12 [Example 99, [4-Amino-5-(7-methoxy-5-methyl-1-benzothiophen-2-yl)pyrrolo[2,1-f][1,2,4]triazin-7-yl]-(piperazin-1-yl)methanone dihydrochloride] | 0.27 | 0.0904 | 9.9 | 0.0666
10 | CCN[C@H]1CCN(Cc2cc(-c3cc4cc(C)cc(OC)c4s3)c3c(N)ncnn23)C1 [Example 16] | 0.08 | 0.0156 | 26.7 | 0.0155
11 | COc1cc(C)cc2cc(-c3cc(CN4CCC[C@H](N)C4)n4ncnc(N)c34)sc12 [Example 56] | 0.169 | 0.0175 | 32.1 | 0.0226
12 | COc1cc(C)cc2cc(-c3cc(CNC(=O)CN)n4ncnc(N)c34)sc12 [Example 106, N-{[4-Amino-5-(7-methoxy-5-methyl-1-benzothiophen-2-yl)pyrrolo[2,1-f][1,2,4]triazin-7-yl]-methyl}glycinamide dihydrochloride] | 0.02 | 0.0254 | 5.6 | 0.0626
13 | COc1cc(C)cc2cc(-c3cc(CN4CCOCC4)n4ncnc(N)c34)sc12 [Example 10, 5-(7-Methoxy-5-methyl-1-benzothiophen-2-yl)-7-(morpholin-4-ylmethyl)pyrrolo[2,1-f][1,2,4]-triazin-4-amine] | 0.021 | 0.0949 | 28.1 | 0.0777
14 | COc1cc(C)cc2cc(-c3cc(CN4CCNC(C(=O)N(C)C)C4)n4ncnc(N)c34)sc12 (stereo not shown) [Example 17] | 0.15 | 0.0273 | 34.3 | 0.0369
15 | COc1cc(C)cc2cc(-c3cc(CN4CC[C@H](N)C4)n4ncnc(N)c34)sc12 [Example 9, 7-{[(3S)-3-Aminopyrrolidin-1-yl]methyl}-5-(7-methoxy-5-methyl-1-benzothiophen-2-yl)pyrrolo[2,1-f][1,2,4]triazin-4-amine] | 0.145 | 0.0047 | 24.2 | 0.0074
16 | COc1cc(C)cc2cc(-c3cc(CN4CCNC(C)(C)C4)n4ncnc(N)c34)sc12 [Example 45] | 0.217 | 0.0181 | 25.9 | 
17 | COc1cc(C)cc2cc(-c3cc(CN4CCNC(=O)CC4)n4ncnc(N)c34)sc12 [Example 20] | 0.11 | 0.0547 | 35.6 | 0.0248
18 | CCN(CC)C1CCN(Cc2cc(-c3cc4cc(C)cc(OC)c4s3)c3c(N)ncnn23)C1 (stereo not shown) [Example 19] | 0.277 | 0.0147 | 25.9 | 0.0272
19 | COc1cc(C)cc2cc(-c3cc(CN4CCN(C(=O)CO)CC4)n4ncnc(N)c34)sc12 [Example 96, 1-(4-{[4-Amino-5-(7-methoxy-5-methyl-1-benzothiophen-2-yl)pyrrolo[2,1-f][1,2,4]triazin-7-yl]-methyl}piperazin-1-yl)-2-hydroxyethanone] | 0.072 | 0.0126 | 37.9 | 0.0119
20 | COc1cc(C)cc2cc(-c3cc(CN4CCC(N(C)C)C4)n4ncnc(N)c34)sc12 (stereo not shown) [Example 42] | 0.13 | 0.0134 | 36.3 | 
21 | COc1cc(C)cc2cc(-c3cc(CN[C@@H]4CCNC4=O)n4ncnc(N)c34)sc12 [Example 6, (3R)-3-({[4-Amino-5-(7-methoxy-5-methyl-1-benzothiophen-2-yl)pyrrolo[2,1-f][1,2,4]triazin-7-yl]methyl}amino)pyrrolidin-2-one dihydrochloride] | 0.022 | 0.0201 | 33.5 | 0.0217
